pIC50: −log10 of the molar value.

Chain of ALK kinase (Q9UM73 19-1620): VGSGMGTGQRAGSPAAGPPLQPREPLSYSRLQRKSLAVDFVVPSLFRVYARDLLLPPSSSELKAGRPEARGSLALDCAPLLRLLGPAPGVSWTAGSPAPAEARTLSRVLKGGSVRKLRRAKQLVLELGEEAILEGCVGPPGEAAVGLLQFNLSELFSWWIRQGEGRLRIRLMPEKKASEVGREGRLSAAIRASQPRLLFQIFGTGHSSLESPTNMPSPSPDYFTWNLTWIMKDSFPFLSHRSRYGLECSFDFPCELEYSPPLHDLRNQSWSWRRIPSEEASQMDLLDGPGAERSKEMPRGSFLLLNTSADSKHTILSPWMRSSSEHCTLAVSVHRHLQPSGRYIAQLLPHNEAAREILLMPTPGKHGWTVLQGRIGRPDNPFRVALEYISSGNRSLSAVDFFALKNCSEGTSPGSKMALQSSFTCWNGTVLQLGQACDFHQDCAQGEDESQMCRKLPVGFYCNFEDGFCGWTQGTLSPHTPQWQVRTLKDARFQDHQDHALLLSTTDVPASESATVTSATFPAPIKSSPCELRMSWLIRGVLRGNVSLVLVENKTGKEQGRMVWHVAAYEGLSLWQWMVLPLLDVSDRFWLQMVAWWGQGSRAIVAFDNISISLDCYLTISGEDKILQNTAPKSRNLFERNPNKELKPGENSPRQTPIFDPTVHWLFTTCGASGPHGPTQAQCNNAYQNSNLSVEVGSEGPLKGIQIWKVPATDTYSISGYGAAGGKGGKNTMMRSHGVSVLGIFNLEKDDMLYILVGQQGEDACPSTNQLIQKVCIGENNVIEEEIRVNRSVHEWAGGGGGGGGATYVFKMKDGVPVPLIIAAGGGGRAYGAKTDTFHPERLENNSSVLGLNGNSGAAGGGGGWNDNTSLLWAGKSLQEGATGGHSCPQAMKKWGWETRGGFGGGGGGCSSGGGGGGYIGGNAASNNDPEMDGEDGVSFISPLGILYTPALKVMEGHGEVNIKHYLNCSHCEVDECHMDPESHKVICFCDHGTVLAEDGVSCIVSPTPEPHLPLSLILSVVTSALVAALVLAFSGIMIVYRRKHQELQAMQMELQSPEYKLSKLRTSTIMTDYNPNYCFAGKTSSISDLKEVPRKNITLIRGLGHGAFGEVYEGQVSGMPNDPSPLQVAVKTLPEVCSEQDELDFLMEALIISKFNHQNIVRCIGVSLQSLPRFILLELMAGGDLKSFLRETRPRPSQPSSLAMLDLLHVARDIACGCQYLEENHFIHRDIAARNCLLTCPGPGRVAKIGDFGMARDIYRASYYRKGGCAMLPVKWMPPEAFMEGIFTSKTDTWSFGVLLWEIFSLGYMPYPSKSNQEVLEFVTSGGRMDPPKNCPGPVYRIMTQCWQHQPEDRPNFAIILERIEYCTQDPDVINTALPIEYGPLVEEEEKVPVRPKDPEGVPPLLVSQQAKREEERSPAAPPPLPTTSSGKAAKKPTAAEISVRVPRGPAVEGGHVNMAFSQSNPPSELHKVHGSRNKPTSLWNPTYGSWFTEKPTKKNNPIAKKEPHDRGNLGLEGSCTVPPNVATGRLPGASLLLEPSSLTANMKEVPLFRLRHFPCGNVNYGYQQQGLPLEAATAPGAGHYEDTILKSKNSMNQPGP

For the first test, the system named is karpas 299 cells. The experiment in a line: Measurement of inhibition of cell proliferation (Karpas), ATPlite. The format is cell-based. The settings on record: Homo sapiens, KARPAS-299, 72 h. The protocol: Measurement of Inhibition of Cell Proliferation (Karpas):
The antiproliferative activities of the compounds were measured using the ATPlite technique (Perkin Elmer).
The non-adhering cells (karpas 299) are seeded in 96-well plates (300 000 cells/ml) on Day 1 at a concentration compatible with logarithmic growth for 72 hours required for evaluation of the compounds. All the cells are treated on Day 1, then placed in an incubator at 37° C. under 5% CO2 atmosphere. Cell viability is evaluated on Day 4 by assay of released ATP, characteristic of viable cells. The IC50 values are determined by non-linear regression on the basis of a sigmoid model of dose/response relationship, Hill's slope coefficient being left variable, performed using GraphPad software sequence with the supplied algorithm.
On the technique in general: Cellular ATP, detected with luciferase, serves as a proxy for viable cell number.
Consider `Cc1n[nH]c2nc(-c3ccc(O)c(Cl)c3)c(C#N)c(-c3ccc(N4CCNCC4)cc3)c12` [Compound 180], for which the negative logarithm of the IC50 (pIC50) was 6.00 to 7.00.
Turning to `N#Cc1c(-c2ccc(O)cc2F)nc2[nH]nc(N)c2c1-c1ccc(N2CCNCC2)cc1F` [Compound 181], the pIC50 was 5.00 to 6.00.
In the case of `N#Cc1c(-c2ccc(O)cc2F)nc2[nH]nc(N)c2c1-c1ccc(N2CCOCC2)o1` [Compound 183], the pIC50 was 5.00 to 6.00.
Take `Cc1n[nH]c2nc(-c3ccc(O)cc3F)c(C#N)c(-c3ccc(N4CCN(C)CC4)s3)c12` [Compound 184]: the pIC50 is 6.00 to 7.00.
The same measure, in the same setting: with `N#Cc1c(-c2ccc(O)cc2F)nc2[nH]nc(N)c2c1-c1ccc(C2=CCNCC2)cc1` [Compound 186] the figure was 5.00 to 6.00; with `Cc1cc(-c2nc3[nH]nc(N)c3c(-c3ccc(N4CCNCC4)cc3)c2C#N)ccc1O` [Compound 187], 5.00 to 6.00.
The same measure, in the same setting: the same measure for `N#Cc1c(-c2ccc(O)cc2F)nc2[nH]nc(N)c2c1-c1ccc(N2CC[C@H](N)C2)cc1` [Compound 188]: 5.00 to 6.00; for `Cc1cc(O)ccc1-c1nc2[nH]nc(C)c2c(-c2ccc(N3CCNCC3)cc2)c1C#N` [Compound 189]: 5.00 to 6.00.
For `N#Cc1c(-c2ccc(O)cc2F)nc2[nH]nc(N)c2c1-c1ccc(N2CCC(N)CC2)o1` [Compound 190], the pIC50 was 5.00 to 6.00.
Still for that read-out and setting: the same measure for `CN(C)CCCN(C)c1ccc(-c2c(C#N)c(-c3ccc(O)cc3F)nc3[nH]nc(N)c23)cc1` [Compound 191]: 5.00 to 6.00.
Regarding `N#Cc1c(-c2ccc(O)c(Cl)c2)nc2[nH]nc(N)c2c1-c1ccc(N2CCNCC2)cc1` [Compound 192], the pIC50 is 5.00 to 6.00.
As to `N#Cc1c(-c2ccc(O)cc2F)nc2[nH]nc(N)c2c1-c1ccc(N2CCNCC2)c(F)c1` [Compound 193], the pIC50 is 5.00 to 6.00.
The same measure, in the same setting: the same measure for `CN(C)CCCOc1ccc(-c2c(C#N)c(-c3ccc(O)cc3F)nc3[nH]nc(N)c23)cc1` [Compound 194]: 6.00 to 7.00.
Compound `N#Cc1c(-c2ccc(O)cc2F)nc2[nH]nc(N)c2c1-c1ccc(C2CCNCC2)cc1` [Compound 195] showed a negative-log IC50 (pIC50) of 5.00 to 6.00.
Still for that read-out and setting: with `N#Cc1c(-c2ccc(O)cc2F)nc2[nH]nc(-c3cccs3)c2c1-c1ccc(N2CCNCC2)cc1` [Compound 196] the figure was 6.00 to 7.00.
`N#Cc1c(-c2ccc(O)cc2F)nc2[nH]nc(-c3ccco3)c2c1-c1ccc(N2CCNCC2)cc1` [Compound 197] gave a pIC50 of 6.00 to 7.00.
Same read-out and setting: with `COc1ccc(-c2n[nH]c3nc(-c4ccc(O)cc4F)c(C#N)c(-c4ccc(N5CCNCC5)cc4)c23)cc1` [Compound 198] the figure was 6.00 to 7.00; with `N#Cc1c(-c2cc(Cl)c(O)cc2F)nc2[nH]nc(N)c2c1-c1ccc(N2CCNCC2)cc1` [Compound 199], less than 5.00.
The same measure, in the same setting: with `N#Cc1c(-c2ccc(O)cc2F)nc2[nH]nc(N)c2c1-c1ccc(N2CCC(N3CCCC3)CC2)cc1` [Compound 200] the figure was 6.00 to 7.00; with `N#Cc1c(-c2ccc(O)cc2F)nc2[nH]nc(-c3ccncc3)c2c1-c1ccc(N2CCNCC2)cc1` [Compound 201], less than 5.00; with `COc1cc(-c2c(C#N)c(-c3ccc(O)cc3F)nc3[nH]nc(N)c23)ccc1N1CCNCC1` [Compound 202], less than 5.00.
For `N#Cc1c(-c2ccc(O)cc2F)nc2[nH]nc(N)c2c1-c1ccc(OCCCN2CCCCC2)cc1` [Compound 203], the pIC50 is 5.00 to 6.00.
For the compound `Cc1n[nH]c2nc(-c3ccc(O)cc3F)c(C#N)c(-c3ccc(N4CCNCC4)s3)c12` [Compound 204], the pIC50 is 6.00 to 7.00.

For another test, the target named is ALK kinase (Homo sapiens, UniProt Q9UM73). Briefly: Test to measure ALK kinase inhibition (GST-PLCγ1 substrate, anti-phosphotyrosine ELISA, luminescence). Format: biochemical. The settings on record: ALK kinase 180 ng/ml, 250 μM ATP, 30 minutes at 30° C. The protocol:
Test to Measure ALK Kinase Inhibition
A ViewPlate (Packard) is incubated with the GST-PLCγ1 substrate (purified recombinant form) at 0.1 mg/ml in phosphate buffer (PBS pH 7.4)(100 μl/well) for one hour under shaking. The plate is then saturated with a blocking solution containing 5% bovine serum albumin (BSA) (SIGMA) in PBS buffer pH 7.4.
After adding the inhibitor at the desired final concentration (usual range of 30 μM to 10 nM), the reaction is conducted by adding the ALK kinase at 180 ng/ml in 13 mM Tris reaction buffer pH 7.5 (SIGMA); 6.5 mM MgCl2 (MERCK); 0.65 mM DiThioThreitol (DTT) (ACROS); 39 mM sodium β-glycerophosphate (TCI); 0.65 mM sodium orthovanadate (SIGMA) and 250 μM ATP (SIGMA). Incubation is carried out for 30 minutes at 30° C. under shaking.
After three washings under shaking in 0.1% PBS/Tween-20 buffer (SIGMA), an anti-phosphotyrosine antibody coupled with HRP (UBI) diluted to 1/1000th in PBS/BSA buffer 5 mg/ml, is incubated for one hour under shaking. After three further washings in 0.1% PBS/Tween-20, the wells are incubated two minutes with 100 μl of SuperSignal ELISA mixture (PIERCE).
The signal is read in luminescent mode using a luminometer (MOLECULAR DEVICES SpectraMax M5e).
A general note: ELISA stands for enzyme-linked immunosorbent assay.
For `Cc1n[nH]c2nc(-c3ccc(O)c(Cl)c3)c(C#N)c(-c3ccc(N4CCNCC4)cc3)c12` [Compound 180], the pIC50 is more than 7.00.
The same measure, in the same setting: the same measure for `N#Cc1c(-c2ccc(O)cc2F)nc2[nH]nc(N)c2c1-c1ccc(N2CCNCC2)cc1F` [Compound 181]: more than 7.00; for `N#Cc1c(-c2ccc(O)cc2F)nc2[nH]nc(N)c2c1-c1ccc(N2CCOCC2)o1` [Compound 183]: more than 7.00; for `Cc1n[nH]c2nc(-c3ccc(O)cc3F)c(C#N)c(-c3ccc(N4CCN(C)CC4)s3)c12` [Compound 184]: more than 7.00.
Still for that read-out and setting: with `N#Cc1c(-c2ccc(O)cc2F)nc2[nH]nc(N)c2c1-c1ccc(C2=CCNCC2)cc1` [Compound 186] the figure was more than 7.00.
`Cc1cc(-c2nc3[nH]nc(N)c3c(-c3ccc(N4CCNCC4)cc3)c2C#N)ccc1O` [Compound 187]: the pIC50 was more than 7.00.
On the same count and under the same terms, the same measure for `N#Cc1c(-c2ccc(O)cc2F)nc2[nH]nc(N)c2c1-c1ccc(N2CC[C@H](N)C2)cc1` [Compound 188]: more than 7.00; for `Cc1cc(O)ccc1-c1nc2[nH]nc(C)c2c(-c2ccc(N3CCNCC3)cc2)c1C#N` [Compound 189]: 6.00 to 7.00.
Same read-out and setting: the same measure for `N#Cc1c(-c2ccc(O)cc2F)nc2[nH]nc(N)c2c1-c1ccc(N2CCC(N)CC2)o1` [Compound 190]: more than 7.00; for `CN(C)CCCN(C)c1ccc(-c2c(C#N)c(-c3ccc(O)cc3F)nc3[nH]nc(N)c23)cc1` [Compound 191]: more than 7.00.
The same measure, in the same setting: the same measure for `N#Cc1c(-c2ccc(O)c(Cl)c2)nc2[nH]nc(N)c2c1-c1ccc(N2CCNCC2)cc1` [Compound 192]: more than 7.00.
For the compound `N#Cc1c(-c2ccc(O)cc2F)nc2[nH]nc(N)c2c1-c1ccc(N2CCNCC2)c(F)c1` [Compound 193], the pIC50 is more than 7.00.
Same read-out and setting: with `CN(C)CCCOc1ccc(-c2c(C#N)c(-c3ccc(O)cc3F)nc3[nH]nc(N)c23)cc1` [Compound 194] the figure was more than 7.00; with `N#Cc1c(-c2ccc(O)cc2F)nc2[nH]nc(N)c2c1-c1ccc(C2CCNCC2)cc1` [Compound 195], more than 7.00.
Still for that read-out and setting: the same measure for `N#Cc1c(-c2ccc(O)cc2F)nc2[nH]nc(-c3cccs3)c2c1-c1ccc(N2CCNCC2)cc1` [Compound 196]: 5.00 to 6.00; for `N#Cc1c(-c2ccc(O)cc2F)nc2[nH]nc(-c3ccco3)c2c1-c1ccc(N2CCNCC2)cc1` [Compound 197]: more than 7.00; for `COc1ccc(-c2n[nH]c3nc(-c4ccc(O)cc4F)c(C#N)c(-c4ccc(N5CCNCC5)cc4)c23)cc1` [Compound 198]: more than 7.00.
On the same count and under the same terms, the same measure for `N#Cc1c(-c2cc(Cl)c(O)cc2F)nc2[nH]nc(N)c2c1-c1ccc(N2CCNCC2)cc1` [Compound 199]: more than 7.00.
For `N#Cc1c(-c2ccc(O)cc2F)nc2[nH]nc(N)c2c1-c1ccc(N2CCC(N3CCCC3)CC2)cc1` [Compound 200], the pIC50 is more than 7.00.
The same measure, in the same setting: the same measure for `N#Cc1c(-c2ccc(O)cc2F)nc2[nH]nc(-c3ccncc3)c2c1-c1ccc(N2CCNCC2)cc1` [Compound 201]: more than 7.00; for `COc1cc(-c2c(C#N)c(-c3ccc(O)cc3F)nc3[nH]nc(N)c23)ccc1N1CCNCC1` [Compound 202]: 6.00 to 7.00; for `N#Cc1c(-c2ccc(O)cc2F)nc2[nH]nc(N)c2c1-c1ccc(OCCCN2CCCCC2)cc1` [Compound 203]: 6.00 to 7.00.
The same measure, in the same setting: with `Cc1n[nH]c2nc(-c3ccc(O)cc3F)c(C#N)c(-c3ccc(N4CCNCC4)s3)c12` [Compound 204] the figure was more than 7.00.

The pIC50 is the negative decadic logarithm of the IC50, by convention in mol/L.

Values taken from US8889711B2, “Pyrazolopyridine derivatives as anticancer agent” (Pierre Fabre Medicament, priority 2009, dated 2014).
